Laboratory results reported in ChEMBL document CHEMBL3351650, “Anti-tyrosinase, antioxidant, and antibacterial activities of novel 5-hydroxy-4-acetyl-2,3-dihydronaphtho[1,2-b]furans” (Eur J Med Chem, 2014).
Values after ≈ are worked out from the molar mass of the structure shown.

What was measured:
Staphylococcus aureus = experiment: Antibacterial activity against Staphylococcus aureus KCTC-1916 after 24 hrs by twofold dilution method; assay type: functional; details: KCTC-1916, 24 h
Tyrosinase [1] = molecular target: T1, Tyrosinase (Agaricus bisporus, UniProt O42713)
T1 sequence (O42713 whole entry): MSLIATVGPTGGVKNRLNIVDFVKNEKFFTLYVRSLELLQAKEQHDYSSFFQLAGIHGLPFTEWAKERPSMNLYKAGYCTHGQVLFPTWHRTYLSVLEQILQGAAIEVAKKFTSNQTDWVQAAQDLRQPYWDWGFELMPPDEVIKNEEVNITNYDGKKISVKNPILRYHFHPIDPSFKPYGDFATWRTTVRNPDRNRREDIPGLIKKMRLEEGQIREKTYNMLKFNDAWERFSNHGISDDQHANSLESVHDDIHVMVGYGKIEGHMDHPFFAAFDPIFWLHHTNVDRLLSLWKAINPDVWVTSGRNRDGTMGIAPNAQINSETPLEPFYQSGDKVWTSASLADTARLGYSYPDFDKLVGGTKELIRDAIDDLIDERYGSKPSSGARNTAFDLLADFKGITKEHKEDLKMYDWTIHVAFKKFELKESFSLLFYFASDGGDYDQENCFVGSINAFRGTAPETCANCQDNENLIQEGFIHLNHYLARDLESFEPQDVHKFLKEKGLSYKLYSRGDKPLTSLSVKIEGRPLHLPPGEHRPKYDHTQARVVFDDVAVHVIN
Description: Inhibition of mushroom tyrosinase using L-DOPA as substrate after 2 mins by spectrophotometry

Escherichia coli = experiment: microbe, parasite or virus in culture; details: KCTC-1924, 24 h
Description: Antibacterial activity against Escherichia coli KCTC-1924 after 24 hrs by twofold dilution method

Tyrosinase [2] = molecular target: T1, Tyrosinase; experiment: Competitive inhibition of mushroom tyrosinase using L-DOPA as substrate after 2 mins by Lineweaver-Burk plot

| SMILES | MIC (Staphylococcus aureus) [µg/mL] | IC50 (Tyrosinase [1]) [µM] | IC50 [µg/mL] | MIC (Escherichia coli) [µg/mL] | Ki (Tyrosinase [2]) [µM] |
| --- | --- | --- | --- | --- | --- |
| CC(=O)c1c2c(c3ccccc3c1O)O[C@H]1OCCC[C@@H]21 (relative stereo) | 0.5 (≈ 1.76 µM) | 176 | > 100 | 32 (≈ 113 µM) |  |
| CC(=O)c1c2c(c3ccccc3c1O)OC(C)(c1ccccc1)C2 (stereo unspecified) | 32 (≈ 101 µM) | > 314 | 77.62 (≈ 244 µM) | 2 (≈ 6.28 µM) |  |
| CCOC1Cc2c(C(C)=O)c(O)c3ccccc3c2O1 (stereo unspecified) | 0.5 (≈ 1.84 µM) | 305 | 25.11 (≈ 92.2 µM) | 16 (≈ 58.8 µM) |  |
| CC(=O)c1c2c(c3ccccc3c1O)O[C@H]1OCC[C@@H]21 (relative stereo) | 8 (≈ 29.6 µM) | > 370 | > 100 | 2 (≈ 7.4 µM) |  |
| CCO[C@H]1Oc2c(c(C(C)=O)c(O)c3ccccc23)[C@@H]1C (relative stereo) |  | 107 | > 100 |  |  |
| CCCOC1Cc2c(C(C)=O)c(O)c3ccccc3c2O1 (stereo unspecified) | 0.5 (≈ 1.75 µM) | 31.1 | 3.33 (≈ 11.6 µM) | 0.5 (≈ 1.75 µM) | 11.2 |
| COc1ccc(C2Cc3c(C(C)=O)c(O)c4ccccc4c3O2)cc1 (stereo unspecified) | 32 (≈ 95.7 µM) | > 299 | > 100 |  |  |
| COC1(C)Cc2c(C(C)=O)c(O)c3ccccc3c2O1 (stereo unspecified) | 0.5 (≈ 1.84 µM) | > 367 | 31.47 (≈ 116 µM) | 16 (≈ 58.8 µM) |  |
| CCCCOC1Cc2c(C(C)=O)c(O)c3ccccc3c2O1 (stereo unspecified) | 8 (≈ 26.6 µM) | 232 | 5.01 (≈ 16.7 µM) | 0.5 (≈ 1.66 µM) |  |
| CC(=O)c1c2c(c3ccccc3c1O)OC(OCC(C)C)C2 (stereo unspecified) | 32 (≈ 107 µM) | 198 | 6.3 (≈ 21 µM) |  |  |
| CCO[C@@H]1Oc2c(c(C(C)=O)c(O)c3ccccc23)[C@@H]1C (relative stereo) | 0.5 (≈ 1.75 µM) | > 349 | 62.51 (≈ 218 µM) | 32 (≈ 112 µM) |  |
